For experiment [1], the target named is T1, Nicotinic acetylcholine receptor alpha1 subunit (Heliothis virescens) (UniProt O46128).
T1 sequence (whole entry): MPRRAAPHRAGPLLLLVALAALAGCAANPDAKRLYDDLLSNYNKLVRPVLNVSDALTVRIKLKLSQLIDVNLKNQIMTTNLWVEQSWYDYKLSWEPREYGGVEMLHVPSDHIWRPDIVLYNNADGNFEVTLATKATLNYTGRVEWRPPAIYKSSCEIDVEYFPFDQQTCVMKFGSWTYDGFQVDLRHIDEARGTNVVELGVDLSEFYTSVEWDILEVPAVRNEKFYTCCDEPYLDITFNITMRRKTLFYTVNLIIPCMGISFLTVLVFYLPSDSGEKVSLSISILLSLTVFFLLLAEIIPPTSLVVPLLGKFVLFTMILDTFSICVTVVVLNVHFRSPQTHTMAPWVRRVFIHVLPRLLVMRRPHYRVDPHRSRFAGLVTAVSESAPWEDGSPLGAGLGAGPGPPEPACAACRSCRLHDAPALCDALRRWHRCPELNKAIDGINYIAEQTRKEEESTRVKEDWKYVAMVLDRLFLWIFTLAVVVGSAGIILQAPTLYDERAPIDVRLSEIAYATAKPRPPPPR
The experiment is described as follows: Antagonist activity at nAChR in Heliothis virescens neuronal cells assessed as blockade of acetylcholine-induced response at 10 uM by voltage clamp technique. Format: functional, cell-based. Details: scale not given: the % may be the effect or the level left.

In experiment [2] the target is T2, Nicotinic acetylcholine receptor alpha1 subunit (Heliothis virescens, UniProt O46128).
T2 sequence (O46128 whole entry): T1 sequence (whole entry)
Description: Agonist activity at nAChR in Heliothis virescens neuronal cells by voltage clamp technique. The class given is functional, cell-based.

For experiment [3], the system named is Spodoptera frugiperda. Description: Insecticidal activity against Spodoptera frugiperda at 500 g/ha. The class given is functional, organism-based.
Experiment [4] has as its system Myzus persicae. The experiment is described as follows: Insecticidal activity against Myzus persicae at 500 g/ha. The class given is functional, organism-based.
Experiment [5] deals with Spodoptera frugiperda. Description: Insecticidal activity against Spodoptera frugiperda at 4 to 500 g/ha. Format: functional, organism-based.
Experiment [6] relates to Myzus persicae. Description: Insecticidal activity against Myzus persicae at 4 to 500 g/ha. The class given is functional, organism-based.
The target of experiment [7] is T2, Nicotinic acetylcholine receptor alpha1 subunit. Description: Antagonist activity at nAChR in Heliothis virescens neuronal cells by voltage clamp technique. Format: functional, cell-based.

The source made the active and inactive calls. The calls are words filed in the database; no cut-off is given here.

For five compounds, Activity, EC50 and IC50 results are on record in ChEMBL document CHEMBL1144692, “Alkaloids from stems and leaves of Stemona japonica and their insecticidal activities” (J Nat Prod, 2008).

In general, EC50 refers to the concentration giving half of the maximal effect. The IC50 is the concentration that gives 50% inhibition.

Consider `CC1=C[C@H]([C@H]2O[C@@H]3CCCN4[C@@H](CC[C@H]4[C@@H]4C[C@H](C)C(=O)O4)[C@H]3[C@@H]2C)OC1=O` (relative stereo), for which the Activity in experiment [1] was found to be 90%.

In experiment [2], `CCCC[C@]12[C@H]3C[C@H]4[C@H]5[C@H](C)C(C6OC(=O)C(C)=C6OC)O[C@]5(O3)[C@@H]1[C@H](O)CN42` (stereo partly drawn) [6beta-hydroxystemofoline] registered a half-maximal effective concentration (EC50) of 0.157 µM. Besides, the outcome with Spodoptera frugiperda [3] and in the experiment with Myzus persicae [4] was inactive.

Consider `CCCC[C@@]12C3CCN1[C@H]1C[C@H]2O[C@@]32O/C(=C3\OC(=O)C(C)=C3OC)[C@@H](C)[C@H]12` [STEMOFOLINE], for which, in experiment [2], it took 0.05 µM to reach a half-maximal effect (EC50). The outcome in the experiment with Spodoptera frugiperda [5] and in the experiment on Myzus persicae [6] was Active.

Consider `CCCC[C@]12[C@@H]3C[C@H]4[C@H]5[C@H](C)C(C6OC(=O)C(CO)=C6OC)O[C@]5(O3)[C@@H]1CCN42` (some centres undefined) [16-hydroxystemofoline], for which the EC50 in experiment [2] worked out at 0.012 µM.

For the compound `COC1=C(C)C(=O)O/C1=C(\O)[C@@H](C)[C@H]1[C@@H](O)CCCN2[C@H]1CC[C@H]2[C@@H]1C[C@H](C)C(=O)O1` [PROTOSTEMODIOL], in experiment [7], the IC50 is 10 µM.
